Test results from patent EP4722219A1 (Gan & Lee Pharmaceuticals Co., Ltd., priority 2023, dated 2024).

Experiments:
Type in all cases: cell-based
LNCaP cells = test: Inhibition of LNCaP cell proliferation (WST-8); conditions: Homo sapiens, LNCaP FGC cells, 96 hours
Description: The inhibitory activity of compounds disclosed in the present invention on LNCaP cell proliferation
The cells were cultured overnight in a 37°C, 5% CO2 cell incubator. […] The final concentration of the compound was 9 concentration points of 5-fold serial dilution starting from 10 µM. […] The cells were cultured in a cell culture incubator at 37°C and 5% CO2 for 96 hours. On the sixth day, the 96-well cell culture plate was removed, and 1/10 volume of WST-8 (Beytime, C0040) reagent was added to each well. The absorbance at 450 nm was detected using a microplate reader (TECAN, F50).

AR protein = molecular target: T1, AR protein (Homo sapiens, UniProt P10275, T878A); test: AR protein degradation in LNCaP cells (Western blot); conditions: 8 hours; for percent AR protein degradation at a fixed concentration at 0.01 µM / Degradation of AR protein in LNCaP cells, 10 nM (%): 10 nM; for percent AR protein degradation at a fixed concentration at 0.1 µM / Degradation of AR protein in LNCaP cells, 100 nM (%): 100 nM
T1 construct: host or cells: LNCaP FGC
T1 sequence (P10275 1-920 T878A): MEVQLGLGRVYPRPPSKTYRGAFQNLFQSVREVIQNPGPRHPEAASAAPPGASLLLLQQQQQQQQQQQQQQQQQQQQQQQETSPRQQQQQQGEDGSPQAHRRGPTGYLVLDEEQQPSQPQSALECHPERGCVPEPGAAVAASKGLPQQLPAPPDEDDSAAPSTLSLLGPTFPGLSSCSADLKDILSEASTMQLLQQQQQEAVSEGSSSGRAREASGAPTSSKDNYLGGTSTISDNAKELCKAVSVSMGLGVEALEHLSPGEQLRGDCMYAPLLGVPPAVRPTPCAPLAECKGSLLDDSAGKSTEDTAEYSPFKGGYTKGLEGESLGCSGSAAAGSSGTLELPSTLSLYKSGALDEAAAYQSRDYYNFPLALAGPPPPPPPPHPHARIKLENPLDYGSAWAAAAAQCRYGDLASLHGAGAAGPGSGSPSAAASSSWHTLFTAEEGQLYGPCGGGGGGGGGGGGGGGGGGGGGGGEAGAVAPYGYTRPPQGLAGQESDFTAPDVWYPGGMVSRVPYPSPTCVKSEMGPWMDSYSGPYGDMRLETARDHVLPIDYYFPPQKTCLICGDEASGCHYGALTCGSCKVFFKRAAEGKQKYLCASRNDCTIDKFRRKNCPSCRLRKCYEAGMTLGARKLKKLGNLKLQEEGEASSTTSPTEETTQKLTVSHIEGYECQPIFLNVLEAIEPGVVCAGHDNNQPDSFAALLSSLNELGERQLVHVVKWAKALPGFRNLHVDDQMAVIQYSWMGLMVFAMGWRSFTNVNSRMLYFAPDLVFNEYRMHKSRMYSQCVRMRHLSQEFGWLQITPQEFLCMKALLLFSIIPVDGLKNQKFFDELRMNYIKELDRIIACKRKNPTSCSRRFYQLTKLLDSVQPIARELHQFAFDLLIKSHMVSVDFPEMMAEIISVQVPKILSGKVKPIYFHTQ
Description: At the same time, the corresponding solvent control was set and cultured for 8 hours. After 8 hours of culture, the culture medium was removed, the cells were washed with PBS, and RIPA lysis buffer containing 1% Protease Inhibitor Cocktail was added. After lysis and centrifugation, the total protein extract was obtained, and the protein concentration in the extract was detected by BCA method. Protein electrophoresis was performed using SDS-PAGE, and then the protein was transferred to a PVDF (Millipore Sigma catalog number PSRP010R5) membrane at a constant voltage of 100V for 60 minutes. The PVDF membrane was placed in a 5% milk powder 1 ×TBST solution and blocked at room temperature for 1 hour. […] The primary antibody solution was discarded and the PVDF membrane was washed with 1×TBST for 5 minutes each time, for three times. […] The secondary antibody solution was discarded and the PVDF membrane was washed with 1 ×TBST for 5 minutes each time, for three times. A dual-color infrared laser imaging system (Licor catalog number Odyssey CLX) was used for Western membrane imaging. The Image Studio software was used to analyze the grayscale of the bands. GAPDH protein bands were also detected for each sample as the reference. The AR protein degradation rate of the compound and the positive control sample was calculated based on the grayscale of the protein bands.

VCaP cells = test: Inhibition of VCaP cell proliferation (WST-8); conditions: Homo sapiens, 168 hours
Description: On the first day of the experiment, VCaP cells were seeded at a density of 15,000 cells/well in a 96-well plate using DMEM medium containing 10% fetal bovine serum, with 100µL of cell suspension per well, and cultured overnight in a cell incubator at 37°C and 5% CO2. On the second day, 100µL of the compound of the present invention and the positive control ARV-110 (source: Anaiji) prepared in culture medium at different concentrations were added to each well. The final concentration of the compound was 9 concentration points of 5-fold serial dilution starting from 10 µM. […] On the ninth day, the 96-well cell culture plate was removed and 1/10 volume of WST-8 (Beytime, C0040) reagent was added to each well. The absorbance at 450nm was measured using a microplate reader (TECAN, F50).

Compound `N#Cc1cc2c(cc1Cl)CC1(CCN(c3ccc(C(=O)N4CCC(CN5CCC6(CCc7cc(C(=O)N[C@H]8CCC(=O)NC8=O)c(F)cc7O6)CC5)CC4)cc3)CC1)CO2` [A-P-51] has an IC50 (LNCaP cells) of 3.36 µM, a percent AR protein degradation at a fixed concentration at 0.01 µM (AR protein) of -23% and a percent AR protein degradation at a fixed concentration at 0.1 µM (AR protein) of 12%. It also gave an IC50 (VCaP cells) of 8.44 µM.
With `C[C@H]1CC2(CCN(c3ccc(N4CCC(CN5CCN6c7ccc(C(=O)N[C@H]8CCC(=O)NC8=O)c(F)c7OC[C@H]6C5)CC4)cc3)CC2)CN1c1ccc(C#N)c(Cl)c1` [A-P-61, (R)-3-((1-(4-((S)-2-(3-chloro-4-cyanophenyl)-3-methyl-2,8-diazaspiro[4.5]decan-8-yl)phenyl)piperidin-4-yl)methyl)-N-((S)-2,6-dioxopiperidin-3-yl)-7-fluoro-1,2,3,4,4a,5-hexahydrobenzo[b]pyrazi no[1,2-d][1,4]oxazine-8-carboxamide] the IC50 (LNCaP cells) was 0.21 µM, the percent AR protein degradation at a fixed concentration at 0.01 µM (AR protein) was 24% and the percent AR protein degradation at a fixed concentration at 0.1 µM (AR protein) was 79%. The IC50 (VCaP cells) was 0.19 µM.
With `COc1cc2c(cc1C(=O)N[C@H]1CCC(=O)NC1=O)CCC1(CCN(CC3CCN(c4ccc(N5CCC6(CC5)C[C@H](C)N(c5ccc(C#N)c(Cl)c5)C6)cc4)CC3)CC1)O2` [A-P-54] the IC50 (LNCaP cells) was 0.91 µM, the “Degradation of AR protein in LNCaP cells, 10 nM (%)” value (“Degradation … 10 nM (%)” for short) (AR protein) was 40% and the “Degradation of AR protein in LNCaP cells, 100 nM (%)” value (from here on “Degradation … 100 nM (%)”) (AR protein) was 74%. The IC50 (VCaP cells) was 0.007 µM.
In the case of `CC1(C)[C@H](NC(=O)c2ccc(N3CCC(CN4CCN5c6ccc(C(=O)N[C@H]7CCC(=O)NC7=O)cc6OC[C@H]5C4)CC3)cc2)C(C)(C)[C@H]1Oc1ccc(C#N)c(Cl)c1` [A-P-77], the IC50 (LNCaP cells) is reported as 0.44 µM, the “Degradation … 10 nM (%)” value (AR protein) is reported as 20% and the “Degradation … 100 nM (%)” value (AR protein) is reported as 62%. The IC50 (VCaP cells) was 0.0055 µM.
Compound `N#Cc1cc2c(cc1Cl)OC1(CCN(c3ccc(C(=O)N4CCC(CN5CCC6(CCc7cc(C(=O)N[C@H]8CCC(=O)NC8=O)c(F)cc7O6)CC5)CC4)cc3)CC1)CO2` [A-P-46, (S)-1'-((1-(4-(7-chloro-6-cyano-3H-spiro[benzo[b][1,4]dioxo-2,4'-piperidin]-1'-yl)benzoyl)piperidin-4-yl)methyl)-N-(2,6-dioxopiperidin-3-yl)-7-fluorospiro[chroman-2,4'-piperidin]-6-carboxamide] has an IC50 (LNCaP cells) of 0.89 µM, a percent AR protein degradation at a fixed concentration at 0.01 µM (AR protein) of 4% and a percent AR protein degradation at a fixed concentration at 0.1 µM (AR protein) of 15%. For the same compound, the IC50 (VCaP cells) was 3.75 µM.
With `COc1cc(O[C@H]2C(C)(C)[C@H](NC(=O)c3ccc(N4CCC(CN5CCN6c7cc(F)c(C(=O)N[C@H]8CCC(=O)NC8=O)cc7OC[C@H]6C5)CC4)cc3)C2(C)C)ccc1C#N` [A-P-63] the IC50 (LNCaP cells) was 0.24 µM, the “Degradation … 10 nM (%)” value (AR protein) was 27% and the “Degradation … 100 nM (%)” value (AR protein) was 68%. The IC50 (VCaP cells) was 0.39 µM.
In the case of `C[C@H]1CC2(CCN(c3ccc(N4CCC(CN5CCN6c7cc(F)c(C(=O)N[C@H]8CCC(=O)NC8=O)cc7OC[C@H]6C5)CC4)cc3)CC2)CN1c1ccc(C#N)c(Cl)c1` [A-P-59, (R)-3-((1-(4-((S)-2-(3-chloro-4-cyanophenyl)-3-methyl-2,8-diazaspiro[4.5]decan-8-yl)phenyl)piperidin-4-yl)methyl)-N-((S)-2,6-dioxopiperidin-3-yl)-9-fluoro-1,2,3,4,4a,5-hexahydrobenzo[b]pyrazi no[1,2-d][1,4]oxazine-8-carboxamide], the IC50 (LNCaP cells) is reported as 0.15 µM and the IC50 (VCaP cells) is reported as 0.16 µM.
`COc1cc(O[C@H]2C(C)(C)[C@H](NC(=O)c3ccc(N4CCC(CN5CCC6(CC5)COc5c6ccc(C(=O)N[C@H]6CCC(=O)NC6=O)c5OC)CC4)cc3)C2(C)C)ccc1C#N` [A-P-78, 1'-((1-(4-(((1r,3r)-3-(4-cyano-3-methoxyphenoxy)-2,2,4,4-tetramethylcyclobutyl)carbamoyl)phenyl)piperidin-4-yl)methyl)-N-((S)-2,6-dioxopiperidin-3-yl)-7-methoxy-2H-spiro[benzofuran-3,4'-piperidine]-6-carboxamide] was tested, and the IC50 (LNCaP cells) was 50.7 µM, the “Degradation … 10 nM (%)” value (AR protein) was -2% and the “Degradation … 100 nM (%)” value (AR protein) was 14%. For the same compound, the IC50 (VCaP cells) was over 10 µM.
With `C[C@H]1CC2(CCN(c3ccc(N4CCC(CN5CC6(CCC7(CC6)COc6c7ccc7c6CN(C6CCC(=O)NC6=O)C7=O)C5)CC4)cc3)CC2)CN1c1ccc(C#N)c(Cl)c1` (stereo partly drawn) [A-P-6, 2-chloro-4-((3S)-8-(4-(4-((7'-(2,6-dioxopiperidin-3-yl)-6'-oxo-7',8'-dihydro-2'H,6'H-dipyrazole[azetidine-3,1'-cyclohexane-4',3'-furo[2,3-e]isoindol]-1-yl)methyl)piperidin-1-yl)phenyl)-3-methyl-2,8-diazaspiro[4.5]decan-2-yl)benzonitrile] the IC50 (LNCaP cells) was 1.02 µM, the “Degradation … 10 nM (%)” value (AR protein) was 58% and the “Degradation … 100 nM (%)” value (AR protein) was 60%. It also gave an IC50 (VCaP cells) of 0.00016 µM.
Compound `COc1cc2c(cc1C(=O)N[C@H]1CCC(=O)NC1=O)C1(CCN(CC3CCN(c4ccc(N5CCC6(CC5)C[C@H](C)N(c5ccc(C#N)c(Cl)c5)C6)cc4)CC3)CC1)CO2` [A-P-81, 1'-((1-(4-((S)-2-(3-chloro-4-cyanophenyl)-3-methyl-2,8-diazaspiro[4.5]decan-8-yl)phenyl)piperidin-4-yl)methyl)-N-((S)-2,6-dioxopiperidin-3-yl)-6-methoxy-2H-spiro[benzofuran-3,4'-piperidin]-5-carboxamide] has an IC50 (LNCaP cells) of 14.5 µM, a percent AR protein degradation at a fixed concentration at 0.01 µM (AR protein) of -15% and a percent AR protein degradation at a fixed concentration at 0.1 µM (AR protein) of 30%. For the same compound, the IC50 (VCaP cells) was 1.79 µM.
Compound `C[C@H]1CC2(CCN(c3ccc(C(=O)N4CCC(CN5CCN6c7cc(F)c(C(=O)N[C@H]8CCC(=O)NC8=O)cc7OC[C@H]6C5)CC4)cc3)CC2)CN1c1ccc(C#N)c(Cl)c1` [A-P-60] has an IC50 (LNCaP cells) of 0.69 µM and an IC50 (VCaP cells) of 0.94 µM.
`COc1cc2c(cc1C(=O)N[C@H]1CCC(=O)NC1=O)OC[C@H]1CN(CC3CCN(c4ccc(N5CCC6(CC5)C[C@H](C)N(c5ccc(C#N)c(Cl)c5)C6)cc4)CC3)CCN21` [A-P-75] gave an IC50 (LNCaP cells) of 0.35 µM and an IC50 (VCaP cells) of 0.042 µM.
Compound `C[C@H]1CC2(CCN(c3ccc(C(=O)N4CCC(CN5CCC6(CC5)COc5cc(NC7CCC(=O)NC7=O)ccc56)CC4)cc3)CC2)CN1c1ccc(C#N)c(Cl)c1` (stereo partly drawn) [A-P-87, 2-chloro-4-((3 S)-8-(4-(4-((6-((2,6-dioxopiperidin-3-yl)amino)-2H-spiro[benzofuran-3,4'-piperidin]-1'-yl)methyl)piperidin-1-carbonyl)phenyl)-3-methyl-2,8-diazaspiro[4.5]decan-2-yl)benzonitrile] has an IC50 (LNCaP cells) of 0.14 µM and an IC50 (VCaP cells) of 0.0014 µM.
Work on `COc1cc2c(cc1C(=O)N[C@H]1CCC(=O)NC1=O)OC[C@H]1CN(CC3CCN(C(=O)c4ccc(N5CCC6(CC5)C[C@H](C)N(c5ccc(C#N)c(Cl)c5)C6)cc4)CC3)CCN21` [A-P-76] yielded an IC50 (LNCaP cells) of 2.84 µM and an IC50 (VCaP cells) of 0.078 µM.
`C[C@H]1CC2(CCN(c3ccc(C(=O)N4CCC(CN5CCC6(CC5)Cc5ccc(NC7CCC(=O)NC7=O)cc5O6)CC4)cc3)CC2)CN1c1ccc(C#N)c(Cl)c1` (stereo partly drawn) [A-P-94, 2-chloro-4-((3S)-8-(4-(4-((6-((2,6-dioxopiperidin-3-yl)amino)-3H-spiro[benzofuran-2,4'-piperidin]-1'-yl)methyl)piperidin-1-carbonyl)phenyl)-3-methyl-2,8-diazaspiro[4.5]decan-2-yl)benzonitrile] showed an IC50 (LNCaP cells) of 0.39 µM and an IC50 (VCaP cells) of 0.0015 µM.
